Consider 36 compounds from paper PMC3555816, “A Lysine at the C-Terminus of an Odorant-Binding Protein is Involved in Binding Aldehyde Pheromone Components in Two Helicoverpa Species” (PLoS ONE, 2013).

Experiment [1] has as its target T1, HarmOBP7-wt (Helicoverpa armigera, UniProt F5ANI5). Kind of experiment: Competitive binding assay, displacement of 1-NPN from HarmOBP7-wt. Conditions: for Affinity to HarmOBP7 (in words): competitive binding with 1-NPN. On the procedure: (§1) Emission fluorescence spectra were recorded on a Hitachi F-4500 at 25°C in a right angle configuration, with a 1 cm light path quartz cuvette and 5 nm slits for both excitation and emission. The protein was dissolved in 50 mM Tris-HCl buffer, pH 7.4, while ligands were added as 1 mM methanol solutions.
The probe was excited at 337 nm and emission spectra were recorded between 380 and 450 nm. […] Dissociation constant for 1-NPN and the stoichiometry of binding was obtained by processing the data with Prism software.

The target in experiment [2] is T1, HarmOBP7-wt. Kind of experiment: Fluorescence binding of 1-NPN to HarmOBP7-wt. On the procedure:
(§2) Emission fluorescence spectra were recorded on a Hitachi F-4500 at 25°C in a right angle configuration, with a 1 cm light path quartz cuvette and 5 nm slits for both excitation and emission. […]
(§3) The probe was excited at 337 nm and emission spectra were recorded between 380 and 450 nm. […] Dissociation constant for 1-NPN and the stoichiometry of binding was obtained by processing the data with Prism software. Dissociation constants of the competitors were calculated from the corresponding [IC]50 values (concentrations of ligands halving the initial fluorescence value of 1-NPN), using the equation: KD = [IC50]/1+[1-NPN]/K1-NPN, [1-NPN] being the free concentration of 1-NPN and K1-NPN being the dissociation constant of the complex protein/1-NPN.

A further experiment concerns the target T2, HarmOBP7-m1 (Helicoverpa armigera, UniProt F5ANI5).
T2 sequence (F5ANI5 22-142): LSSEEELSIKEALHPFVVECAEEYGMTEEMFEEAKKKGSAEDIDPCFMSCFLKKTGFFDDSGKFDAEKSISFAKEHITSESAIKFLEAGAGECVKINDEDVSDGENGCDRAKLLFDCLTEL
Kind of experiment: Fluorescence binding of 1-NPN to HarmOBP7-m1 (lacks the last 6 residues). The method, then: as §2, §3

The target in the next experiment is HarmOBP7-m2 (Helicoverpa armigera, UniProt F5ANI5). Nature of the experiment: Fluorescence binding of 1-NPN to HarmOBP7-m2 (K123M). Conditions: read-out: Dissociation constant of 1-NPN; HarmOBP7-m2, 2 µM protein in Tris, pH 7.4, three replicates, SD 0.22. On the procedure: as §1, §3
Setting [3] is: HarmOBP7-wt, 2 µM protein and 2 µM 1-NPN, pH 7.4, values larger than 16 extrapolated from the competitive binding curves, read-out: [IC]50.
[4] abbreviates: HarmOBP7-wt, 2 µM protein and 2 µM 1-NPN, pH 7.4, concentration of ligand halving initial 1-NPN fluorescence, read-out: [IC]50.
Where [5] appears, read: HarmOBP7-wt, calculated from [IC]50: KD = [IC50]/1+[1-NPN]/K1-NPN, read-out: KD (calculated dissociation constant).

Like-named read-outs stand apart in the source and are kept apart here.

T1 sequence (F5ANI5 entry or part of it): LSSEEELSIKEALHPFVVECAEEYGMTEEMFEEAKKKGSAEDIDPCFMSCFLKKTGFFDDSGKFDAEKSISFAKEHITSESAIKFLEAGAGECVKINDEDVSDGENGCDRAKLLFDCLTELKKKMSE
HarmOBP7-m2, sequence (F5ANI5 entry or part of it): as above

In the case of `CCCCCCCCCCO` [1-Decanol], the IC50 at HarmOBP7-wt [1] is over 16 µM.

For the compound `CCCCCCCCCCCCO` [1-Dodecanol], at HarmOBP7-wt [1] (setting [3]), the IC50 is over 25 µM.

Consider `CCCCCCCCCCCCCCCCO` [1-Hexadecanol], for which the IC50 on HarmOBP7-wt [1] (setting [3]) was over 16 µM.

On to `c1ccc(Nc2cccc3ccccc23)cc1` [1-NPN, N-phenyl-1-naphthylamine], for which the Kd at HarmOBP7-wt [2] (2 µM protein in Tris, pH 7.4, three replicates, SD 0.63, read-out: Dissociation constant of 1-NPN) was found to be 5.5 µM; at HarmOBP7-m1 (HarmOBP7-m1, 2 µM protein in Tris, pH 7.4, three replicates, SD 1.1, read-out: Dissociation constant of 1-NPN) it was 6.8 µM; at HarmOBP7-m2 it was 3.2 µM. For the same compound, the “Effect of pH on affinity of 1-NPN (in words)” value was “marked increase in affinity” on HarmOBP7-wt [2] (pH range 3.5 to 9.5, basic conditions, no significant loss of binding down to pH 3.5) and “marked increase in affinity” on HarmOBP7-m1 (HarmOBP7-m1, pH range 3.5 to 9.5, basic conditions, no significant loss of binding down to pH 3.5).

As for `CCCCCCCCCCCCCCCCCCO` [1-Octadecanol], on HarmOBP7-wt [1] (setting [3]), the IC50 is over 25 µM.

As for `CCCCCCCCCCCCCCCO` [1-Pentadecanol], at HarmOBP7-wt [1] (setting [3]), the IC50 was over 25 µM.

On HarmOBP7-wt [1], `CCCCCCCCCCCCCCO` [1-Tetradecanol] registered an IC50 of 6.7 µM and a Kd of 5.1 µM.

In the case of `CCCCCCCCCCCCCO` [1-Tridecanol], at HarmOBP7-wt [1] (setting [4]), the IC50 was determined as 4.6 µM. For the same compound, the Kd at HarmOBP7-wt [1] (setting [5]) was 3.5 µM.

Take `CCCCCCCCCCC(C)=O` [2-Dodecanone]: the IC50 on HarmOBP7-wt [1] (setting [3]) was over 16 µM.

As to `COc1ccccc1C=CC=O` [2-Methoxycinnamaldehyde], the IC50 at HarmOBP7-wt [1] (setting [4]) came to 14.7 µM. The Kd on HarmOBP7-wt [1] (setting [5]) was 11.1 µM.

On HarmOBP7-wt [1], `Cc1ccc2ccccc2c1` [2-Methylnaphthalene] displayed an IC50 of over 16 µM.

Turning to `CCCCCCCCCCCC(C)=O` [2-Tridecanone], the IC50 on HarmOBP7-wt [1] (setting [4]) worked out at 9.6 µM. Besides, on HarmOBP7-wt [1] (setting [5]), the Kd is 7.3 µM.

For the compound `CC(C)CCCC(C)CCOC(=O)c1ccccc1` (stereo not shown) [3,7-Dimethyloctylbenzoate], the IC50 on HarmOBP7-wt [1] (setting [4]) amounted to 3.5 µM. On HarmOBP7-wt [1] (setting [5]), the Kd was 2.7 µM.

As for `COc1ccc(-c2ccccc2)cc1` [4-Phenylanisole], on HarmOBP7-wt [1] (setting [3]), the IC50 is over 16 µM.

At HarmOBP7-wt [1], `O=Cc1ccccc1` [Benzaldehyde] came in with an IC50 of 10.8 µM and a Kd of 8.2 µM.

As to `CCCCOC(=O)/C=C/c1ccccc1` [Butyl cinnamate], the IC50 on HarmOBP7-wt [1] (setting [4]) stood at 9.6 µM. In addition, on HarmOBP7-wt [1] (setting [5]), the Kd was 7.3 µM.

Consider `CCCCOC(=O)c1ccc(C(C)(C)C)cc1` [Butyl p-tert-butyl benzoate], for which the IC50 on HarmOBP7-wt [1] (setting [4]) turned out to be 6.9 µM. For the same compound, the Kd at HarmOBP7-wt [1] (setting [5]) is 5.2 µM.

In the case of `O=C(O)/C=C/c1ccccc1` [Cinnamic acid], the IC50 at HarmOBP7-wt [1] was over 25 µM.

At HarmOBP7-wt [1], `COc1cc(/C=C/C=O)ccc1O` [Coniferyl aldehyde] had an IC50 of 12.7 µM and a Kd of 9.6 µM.

Consider `CCCCCCCCCCCC=O` [Dodecanal], for which, at HarmOBP7-wt [1] (setting [4]), the IC50 is 10.3 µM. The Kd at HarmOBP7-wt [1] (setting [5]) was 7.8 µM.

Take `CCCCCCCCCCCCOC(C)=O` [Dodecyl acetate]: the IC50 at HarmOBP7-wt [1] (setting [4]) is 5.2 µM. At HarmOBP7-wt [1] (setting [5]), the Kd was 3.9 µM.

Take `CCCCCCCCCC(=O)OCC` [Ethyl decanoate]: the IC50 at HarmOBP7-wt [1] (setting [3]) is over 16 µM.

With `CCCCCCCCCCCC(=O)OCC` [Ethyl laurate], the IC50 at HarmOBP7-wt [1] (setting [4]) was 4.3 µM. Also, the Kd on HarmOBP7-wt [1] (setting [5]) was 3.3 µM.

Take `CCCCCCCCCCCCCC(=O)OCC` [Ethyl myristate]: the IC50 at HarmOBP7-wt [1] (setting [4]) worked out at 4.7 µM. In addition, at HarmOBP7-wt [1] (setting [5]), the Kd was 3.5 µM.

As to `CCCCCCCCCCCCCCCC(=O)OCC` [Ethyl palmitate], the IC50 on HarmOBP7-wt [1] (setting [4]) is 12.6 µM. For the same compound, at HarmOBP7-wt [1] (setting [5]), the Kd was 12.6 µM.

For the compound `CCCCCCCCCCCCCCCCC=O` [Heptadecanal], the IC50 at HarmOBP7-wt [1] (setting [4]) is 9.1 µM. Besides, the Kd at HarmOBP7-wt [1] (setting [5]) is 6.9 µM.

For the compound `COc1cc(CC(=O)O)ccc1O` [Homovanillic acid], on HarmOBP7-wt [1], the IC50 is over 16 µM.

`COC(=O)C=Cc1ccccc1` [Methyl cinnamate]: the IC50 at HarmOBP7-wt [1] (setting [3]) is over 16 µM.

As for `CCCCCCCCCCCCCC=O` [Tetradecanal], the IC50 at HarmOBP7-wt [1] (setting [4]) is 3.2 µM. Besides, the Kd at HarmOBP7-wt [1] (setting [5]) was 2.4 µM.

For `CCCCCCCCCCCCC=O` [Tridecanal], at HarmOBP7-wt [1] (setting [4]), the IC50 was 4.9 µM. For the same compound, on HarmOBP7-wt [1] (setting [5]), the Kd is 3.7 µM.

Consider `CCCCCCCCCCC=O` [Undecanal], for which the IC50 at HarmOBP7-wt [1] (setting [4]) came to 10.7 µM. At HarmOBP7-wt [1] (setting [5]), the Kd is 8.1 µM.

As to `CCCCCC/C=C\CCCCCCCC=O` [Z-9-hexadecenal], the “Affinity to HarmOBP7 (in words)” value at HarmOBP7-wt [1] (HarmOBP7-wt) is on record as “good affinity”.

`CCCC/C=C\CCCCCCCCCC=O` [Z-11-hexadecenal]: on HarmOBP7-wt [1] (HarmOBP7-wt), the “Affinity to HarmOBP7 (in words)” value was “good affinity”.

Turning to `CC(C)c1ccc(C=O)cc1` [p-Isopropylbenzaldehyde], on HarmOBP7-wt [1] (setting [4]), the IC50 stood at 10.5 µM. The Kd on HarmOBP7-wt [1] (setting [5]) was 7.9 µM.

Consider `CC(C)(C)c1ccc(C(=O)c2ccccc2)cc1` [p-tert-Butylbenzophenone], for which the IC50 at HarmOBP7-wt [1] (setting [4]) came to 4.5 µM. The Kd at HarmOBP7-wt [1] (setting [5]) is 3.4 µM.

`CCCCC/C(C=O)=C/c1ccccc1` [α-Amylcinnamaldehyde]: at HarmOBP7-wt [1] (setting [4]), the IC50 is 5.5 µM. Moreover, at HarmOBP7-wt [1] (setting [5]), the Kd was 4.2 µM.
